Experimental data published in US9273341B2, “Methods for treatment of bacterial infections” (THE JOHNS HOPKINS UNVIERSITY, priority 2010, dated 2016).
≈ marks a conversion by molar mass, not a printed value. Entries after “also recorded” stand apart in the source; their conditions may differ.

Columns and labels:
[1] = system: M. tuberculosis mutant strain lacking LdtMt2 (ldtMt2::Tn); format: cell-based
LdtMt2 [2] = biological target: T1, LdtMt2 (Mycobacterium tuberculosis, UniProt O53223); format: biochemical, M. tuberculosis
T1 construct: initiator methionine from the pET2818 ATG codon (N); made in house; host or cells: E. coli BL21(DE3) harboring pREP4GroESL and pET2818 with the ldtMt2 fragment
T1 sequence (O53223 55-408): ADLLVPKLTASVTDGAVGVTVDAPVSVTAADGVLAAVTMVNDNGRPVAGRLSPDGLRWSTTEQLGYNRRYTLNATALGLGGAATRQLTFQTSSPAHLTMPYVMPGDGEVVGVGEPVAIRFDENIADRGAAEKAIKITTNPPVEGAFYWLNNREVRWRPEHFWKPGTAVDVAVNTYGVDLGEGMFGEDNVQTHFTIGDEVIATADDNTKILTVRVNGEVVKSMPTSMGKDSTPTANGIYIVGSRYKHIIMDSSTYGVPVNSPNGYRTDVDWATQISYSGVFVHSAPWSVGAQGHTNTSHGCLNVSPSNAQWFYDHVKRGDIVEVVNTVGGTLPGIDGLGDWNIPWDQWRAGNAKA

LdtMt2 [3] = biological target: T1, LdtMt2; format: binding, M. tuberculosis
[4] = system: M. tuberculosis lacking LdtMt2 (ldtMt2::Tn); parameters: species or system Balb/C mice; conditions: mouse, in vivo

Compound	concentration up to which LdtMt2 was not inhibited (LdtMt2 [2])	formation of covalent adducts with LdtMt2 (LdtMt2 [3])	other results
N[C@@H]1CON=C1O [D-cycloserine]			MIC [1]: 5 µg/mL (≈ 49 µM)
CC1(C)S[C@@H]2[C@H](NC(=O)[C@H](N)c3ccccc3)C(=O)N2[C@H]1C(=O)O [ampicillin]	> 5,700 μM	Adducts were not detected; also recorded: No adduct was detected	
C[C@@H](O)[C@H]1C(=O)N2C(C(=O)O)=C(S[C@@H]3CN[C@H](C(=O)Nc4cccc(C(=O)O)c4)C3)[C@H](C)[C@H]12 [ertapenem]		formation of covalent adducts	
NNC(=O)c1ccncc1 [isoniazid]			bacterial burden (lung CFU) under treatment [4]: similarly effective
C[C@@H](O)[C@H]1C(=O)N2C(C(=O)O)=C(S[C@@H]3CN[C@H](C(=O)N(C)C)C3)[C@H](C)[C@H]12 [meropenem]		formation of covalent adducts	
CO/N=C(\C(=O)N[C@@H]1C(=O)N2C(C(=O)O)=C(CSc3nc(=O)c(=O)[nH]n3C)CS[C@H]12)c1csc(N)n1 [ceftriaxone]	> 360 µM	Adducts were not detected; also recorded: No adduct was detected	
